Test results from patent US20050014742A1, “Use of inhibitors of the y2 receptor of neuropeptide y in the treatment of alcoholism” (priority 2001, published 2005).
“Also recorded” adds a separate entry of the source.

Tests used:
Assay type in all cases: in vivo, rat
rats = experiment: Preliminary dose-finding experiments (sedation); details: dose of 3 nmol i.c.v.
Description: […] […] The drug was dissolved in 0.9% NaCl and injected 45 min prior to onset of sessions, in a volume of 10 μl over a period of 2 min interval. The injection cannula was left in place for an additional minute to prevent back flow.

Male Wistar rats = experiment: Operant ethanol self-administration after intracerebroventricular injection
Description: Male Wistar rats (Charles River, Hamburg, Germany), appr. 225 g at start of experiment were used for the experiments from which data are presented. For a replication experiment (see Results), Wistar males of the same age but delivered by Mollegard, Ry, Denmark, were used. Subjects were housed on a reversed light-cycle (lights off 11 am, on 11 pm). Following training for operant responding (see below), surgery was carried out for unilateral cannula implantation. Rats were anaesthetized with ketaminelxylazine (80 mg/kg and 15 mg/kg) and placed in a stereotaxic apparatus (Kopf). Stainless steel guide cannulas (23 gauge, PlasticOne, Roanoke, Va.) aimed at the lateral ventricle were implanted and secured to the skull with stainless screws and dental cement. Final injection coordinates were: A=−0.8, L=±1.4, V=−4.3 from Bregma (15). Animals were allowed to recover for one week, during which time they were only repeatedly handled, in order to reduce the stress of subsequent intracerebroventricular injections. They were then reintroduced to the operant task (see below), and allowed to re-establish their rates of operant responding for two weeks. Finally, the actual Latin-square design was initiated, and carried out over the course of three weeks.
BIIE0246 ([…]; kind gift of Boehringer Ingelheim) or saline was injected i.c.v. via an injection cannula (28-gauge) connected to a 10 μl Hamilton syringe with a low-volume plastic tubing. […] The drug was dissolved in 0.9% NaCl and injected 45 min prior to onset of sessions, in a volume of 10 μl over a period of 2 min interval. The injection cannula was left in place for an additional minute to prevent back flow.
Following completion of training, rats were subjected to surgery, allowed to recover for one week and to stabilize their baseline responding for two weeks, after which a Latin Square design was initiated and carried out over three weeks. During each of these weeks, rats were run Monday-Friday, and drug administration was on Friday. […] In order to retain a balanced design, the analysis presented here includes only those subjects, which completed all treatments. An analysis based on all subjects, with missing values for failed injections, produced a virtually identical result.

Wistar rats = experiment: Exploratory locomotor activity after intracerebroventricular administration; details: for Horizontal locomotor activity / Vertical locomotor activity (rearings): 30 min test period, n=6, mean ± SEM
[1] = Wistar rats from Mollegard, separate experiment (data not shown)

N=C(N)NCCC[C@H](NC(=O)CC1(CC(=O)N2CCN(C3c4ccccc4NC(=O)c4ccccc43)CC2)CCCC1)C(=O)NCCn1c(=O)n(-c2ccccc2)n(-c2ccccc2)c1=O (stereo partly drawn) [BIIE0246, (S)—N^2-//1-/2-/4-/(R,S)-5,11-Dihydro-6(6H)-oxodibenz/b,elazepin-11-yl/-1-piperazinyl/-2-oxoethyl/-cyclopentyl/acetyl/-N-/2-/1,2-dihydro-3,5(4H)-dioxo-1,2-diphenyl-3H-1,2,4-triazol-4-yl/-ethyl/-argininamide]
Sedative effect (rats): marked sedative effects
Ethanol-reinforced responses over time (cumulative, 5 min intervals) (Male Wistar rats; 1.0 nmol i.c.v., 30 min session, vs saline, Tukey HSD p<0.001): present during min 10-30; also recorded: significantly less during the last 20 but not during the initial 10 min
Reduction of total responding for ethanol (Male Wistar rats; 1.0 nmol i.c.v., 45 min before 30 min session, Wistar rats (Charles River), p<0.05 vs saline and vs 0.3 nmol): ~40%
Responding for ethanol (Male Wistar rats; 1.0 nmol i.c.v., n=13, p=0.013 (FIG. 1A)): significantly reduced
Effect on saccharin solution, replication experiment (Male Wistar rats; [1]): no effect
Suppression of responding for ethanol, replication experiment (Male Wistar rats; [1]): 40%
Total responding for ethanol (overall treatment effect) (Male Wistar rats; i.c.v., 0, 0.3 and 1.0 nmol, one way ANOVA, n=13, p=0.013): significantly reduced
Responding for saccharin (Male Wistar rats; i.c.v., 0.3 and 1.0 nmol, p=0.25, Charles River Wistar rats): unaffected
Horizontal locomotor activity (Wistar rats; 0.3 nmol i.c.v.): 2873.8 ± 572.0
Vertical locomotor activity (rearings) (Wistar rats; 0.3 nmol i.c.v.): 756.8 ± 122.9
Horizontal locomotor activity (Wistar rats; 1.0 nmol i.c.v.): 2630.2 ± 480.0
Vertical locomotor activity (rearings) (Wistar rats; 1.0 nmol i.c.v.): 503.3 ± 113.4
Effect of treatment on horizontal and vertical locomotor activity (Wistar rats; i.c.v., 0.3 and 1.0 nmol, n=6, p=0.74 horizontal, p=0.17 vertical): Neither horisontal (n=6; F[2,15]=0.3; p=0.74) nor vertical activity (F[2,15]=2.0; p=0.17) was affected
